Measured values published in the NIST ThermoML archive (doi:10.1016/j.fluid.2014.05.018).
Several values for one entry are separate records, joined by “and”; a condition that tells them apart may be missing. Equal entries are not always repeated. Numbers after ± are expanded uncertainties.

Conditions: Liquid, Ebulliometric method (Recirculating still)

With `CCO` [ethanol] the “vapor or sublimation pressure” value (313.2 K) was 18 ± 6 kPa, the “vapor or sublimation pressure” value (333.2 K) was 50 ± 6 kPa and 47 ± 6 kPa and the “vapor or sublimation pressure” value (353.2 K) was 110 ± 6 kPa and 108 ± 6 kPa. The “vapor or sublimation pressure” value (373.2 K) was 225 ± 6 kPa and 224 ± 6 kPa and the “vapor or sublimation pressure” value (403.2 K) was 585 ± 7 kPa and 572 ± 7 kPa.

In the case of `CCCC` [butane], the “vapor or sublimation pressure” value (313.2 K) is reported as 379 ± 7 kPa, the “vapor or sublimation pressure” value (333.2 K) is reported as 645 ± 7 kPa and the “vapor or sublimation pressure” value (353.2 K) is reported as 1013 ± 8 kPa. The “vapor or sublimation pressure” value (373.2 K) was 1525 ± 11 kPa and the “vapor or sublimation pressure” value (403.2 K) was 2660 ± 14 kPa.

With `CC(C)C` [2-methylpropane] the “vapor or sublimation pressure” value (313.2 K) was 536 ± 7 kPa, the “vapor or sublimation pressure” value (333.2 K) was 880 ± 8 kPa and the “vapor or sublimation pressure” value (353.2 K) was 1363 ± 10 kPa. For the same compound, the “vapor or sublimation pressure” value (373.2 K) was 2014 ± 12 kPa and the “vapor or sublimation pressure” value (403.2 K) was 3377 ± 16 kPa.
